According to publication PMC13327620, “A Deep‐Red‐Absorbing Osmium(II) Complex as a Photosensitizer for Photodynamic Therapy Inducing Immunogenic Cell Death” (Angewandte Chemie (International Ed. in English), 2026):

Experiments:
[1] = Photophysical properties (fluorescence and singlet oxygen quantum yield, lifetime); assay type: physicochemical; conditions: in ethanol
Protocol: System Inc, Phoenixville, PA, USA). The excitation beam is separated by a SPEX dual […]
network monochromator (1200 lines / mm blazed at 330 nm). The fluorescence was […]
measured by the UV-Visible detector via the SPEX dual network emission […]
monochromator (1200 lines / mm blazed at 500 nm). Singlet oxygen production was […]
measured with an infrared detector InGaAs (800 - 1550 nm) via the dual network […]
emission monochromator SPEX (600 lines / mm blazed at 1 µm).
All spectra were measured using 4-sided quartz cells. The absorption values of the […]
references and samples at the excitation wavelength were adjusted to 0.2. All emission […]
spectra were normalized to the same absorbance for the purpose of comparison.
[Ru(bpy)3]2+ in acetonitrile was chosen as standard for both fluorescence and singlet […]
oxygen quantum yield determination. Fluorescence quantum yield of [ Ru(bpy)3]2+ i n […]
acetonitrile is evaluated at 0.077.[5] Singlet oxygen quantum yield of [ Ru(bpy)3]2+ i n […]
acetonitrile is evaluat ed at 0.77.[6]
Time-resolved experiments were performed using for excitation: a pulsed laser diode […]
emitting at 407 nm (LDH-P-C-400M, FWHM < 70 ps, 1 MHz) coupled with a driver […]
PDL 800- D (both PicoQuant GmbH, BERLIN, Germany) and for detection: an […]
avalanch e photodiode SPCM-AQR-15 (EG & G, VAUDREUIL, Can ada) coupled with […]
a 650 nm long- wav e p ass filter as det ection system. The acquisition was p erformed by […]
a PicoHarp 300 module with a 4 channels router PHR-800 (both PicoQuant GmbH, […]
BERLIN, Germany ). Th e fluores cence decays were recorded using the single photon […]
counting method. Data were collected up to 1000 counts accumulated in the maximum […]
channel and analyzed using Time Correlated Single Photon Counting (TCSPC) […]
software Fluofit (PicoQuant GmbH, BERLIN, Germany) based on iterative reconvolution using a Levensberg- M arquandt alg oritm, enabling the obtention of multi-exponential profiles (m ainly one or two exponenti als in our cases ). […]

[2] = system: immune cells in the spleens; experiment: Flow cytometry analysis of immune cells in spleens after vaccination; assay type: in vivo, BALB/c mice; conditions: spleen, 7 days after vaccination
From the text: Encouraged by the excellent performance of Os2 in inducing ICD both in vitro and in vivo, we decided to further evaluate the antitumor immune response following vaccination. A key feature of ICD is its ability to initiate antigen‐specific adaptive immune responses. To assess this, we measured the immune cell response in the spleens and the cytokine levels in the serum of mice 7 days after vaccination (Figures 6A and S28).
The BALB/c female mice were randomly divided into 4 groups which were named as Control group, Cisplatin group, Ce6 group and Os2 group. CT26-luc cells were tre ated in vitro with 600 µM Cisplatin in the dark, 6.5 µ M Ce6 or 1.8 µM Os2 upon 740 nm LED light irradiation (60 min, 12.6 J cm-2) following the methods described above. […]
The BALB/c female mice were randomly divided into 4 groups with each group containing 3 mice, which were named as Control group, Cisplatin group, Ce6 group and Os2 group. […] For surfac e marker analysis, the cells were stained with fluorescence- l abeled anti-C D45-AF532 (Thermo Fisher Scientific Inc., Catalog no. 58- 0451- 80, clone 30-F 11 ), anti-CD3- […]
Serum samples were obt ained from the mice on day 7 after treatment. Cytokine was detected using ELISA kits according to the manufacturer ’s instructions: IFN-γ (Biolegend, Catalog no. 430807) and IL -17A ( Bi olegend, Catalog no.432507). […]

C=Cc1c(C)c2cc3nc(c(CC(=O)O)c4[nH]c(cc5nc(cc1[nH]2)C(C)=C5CC)c(C)c4C(=O)O)[C@@H](CCC(=O)O)[C@@H]3C [Ce6, chlorin e6]
Fluorescence lifetime [1]: 4.7 ns | Fluorescence quantum yield [1]: 0.20 | Singlet oxygen quantum yield [1]: 0.65 | Activated CD8^+ T cells, times that of Control and Cisplatin groups [2]: around twice higher | Cytotoxic CD8^+ T cells, times higher than Control and Cisplatin groups [2]: more than 10
